Columns and labels:
[1] = biological target: Carbonic anhydrase 9 (Homo sapiens) (UniProt Q16790); assay: Inhibition of human CA9 by CO2 hydration assay
[2] = biological target: Carbonic anhydrase 2 (Homo sapiens) (UniProt P00918)
Description: Inhibition of human CA2 by CO2 hydration assay

[3] = biological target: Carbonic anhydrase 12 (Homo sapiens) (UniProt O43570)
Description: Inhibition of human CA12 by CO2 hydration assay

[4] = biological target: Carbonic anhydrase 1 (Homo sapiens) (UniProt P00915)
Chain of Carbonic anhydrase 1 (Homo sapiens) (P00915 2-261 limits assumed): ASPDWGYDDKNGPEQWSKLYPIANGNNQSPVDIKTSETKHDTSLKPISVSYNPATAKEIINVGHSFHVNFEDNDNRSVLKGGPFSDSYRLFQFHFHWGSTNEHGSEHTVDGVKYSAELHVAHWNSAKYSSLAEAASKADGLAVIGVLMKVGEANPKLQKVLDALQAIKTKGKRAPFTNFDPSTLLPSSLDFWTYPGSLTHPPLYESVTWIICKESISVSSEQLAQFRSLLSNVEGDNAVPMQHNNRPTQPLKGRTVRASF
Description: Inhibition of human CA1 by CO2 hydration assay

Chain of Carbonic anhydrase 12 (Homo sapiens) (O43570 whole entry): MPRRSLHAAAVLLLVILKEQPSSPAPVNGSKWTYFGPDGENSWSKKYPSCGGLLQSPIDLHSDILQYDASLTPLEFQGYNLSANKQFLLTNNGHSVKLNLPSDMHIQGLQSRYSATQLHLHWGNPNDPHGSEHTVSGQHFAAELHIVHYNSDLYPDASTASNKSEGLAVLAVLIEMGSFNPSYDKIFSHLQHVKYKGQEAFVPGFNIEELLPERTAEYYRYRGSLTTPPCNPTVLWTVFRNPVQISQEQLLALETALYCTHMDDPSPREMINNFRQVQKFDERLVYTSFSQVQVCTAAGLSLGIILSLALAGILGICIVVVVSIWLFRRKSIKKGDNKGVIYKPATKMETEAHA

Structure (SMILES) | Ki [1] | Ki [2] | Ki [3] | Ki [4]
O=c1cc(Cl)c2ccccc2o1 | 4.92 µM | > 100 µM | 7.03 µM | 86.9 µM
O=c1cc(CCl)c2ccc(O)cc2o1 | 0.478 µM | > 100 µM | 8.02 µM | > 100 µM
O=c1cc(O)c2ccccc2o1 | 0.418 µM | > 100 µM | 6.3 µM | 95 µM
O=c1cc(CCl)c2ccc(Cl)cc2o1 | 0.359 µM | > 100 µM | 0.735 µM | 72.8 µM

More lines, now with the values ahead:

Ki [1] | Ki [2] | Ki [3] | Ki [4] | Structure (SMILES)
0.198 µM | > 100 µM | 0.683 µM | > 100 µM | O=c1ccc2cc(O)ccc2o1
0.482 µM |  |  | 58.4 µM | O=c1ccc2ccc(O)cc2o1
0.508 µM | > 100 µM | 9.6 µM | 79.4 µM | O=c1oc2ccccc2cc1O
> 100 µM |  | > 100 µM |  | O=c1ccc2ccccc2o1

Source: ChEMBL document CHEMBL1208713, “Coumarins incorporating hydroxy- and chloro-moieties selectively inhibit the transmembrane, tumor-associated carbonic anhydrase isoforms IX and XII over the cytosolic ones I and II” (Bioorg Med Chem Lett, 2010)
